Data taken from US8247211B2, “Glycopeptide antibiotics” (American Cyanamid Company, priority 2001, dated 2012).
Values after ≈ are worked out from the molar mass of the structure shown.

Tests used:
Assay in all cases: In vitro antibacterial evaluation: minimum inhibitory concentration (MIC), broth dilution method
Assay type in all cases: cell-based
Details in all cases: broth dilution, 18 hours at 35° C.
Enterococcus sp. = tested on: Enterococcus sp.
Procedure, shortened: (§1)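 MIC read as lowest drug level preventing visible growth. Organisms at 5×10^5 CFU/mL were exposed to a 64-0.06 μg/mL dilution series in Muller-Hinton II […] following NCCLS broth dilution standard M7-A2.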

Streptococcus sp. = tested on: Streptococcus sp.
Procedure, shortened: as §1

Staphylococcus sp. = tested on: Staphylococcus sp.
Procedure, shortened: as §1

Escherichia coli = tested on: Escherichia coli

MIC Enterococcus avium (GC 4558) (Enterococcus sp.; Enterococcus avium (GC 4558)): 64 µg/mL (≈ 60.3 µM)
MIC Enterococcus faecalis (GC 4553) (Enterococcus sp.; Enterococcus faecalis (GC 4553)): 64 µg/mL (≈ 60.3 µM)
MIC Enterococcus faecium (GC 4557) (Enterococcus sp.; Enterococcus faecium (GC 4557)): 32 µg/mL (≈ 30.1 µM)
MIC Enterococcus avium (GC 4558) (Enterococcus sp.): 64 µg/mL (≈ 60.3 µM)
MIC Enterococcus faecalis (GC 4553) (Enterococcus sp.): 64 µg/mL (≈ 60.3 µM)
MIC Enterococcus faecium (GC 4557) (Enterococcus sp.): 32 µg/mL (≈ 30.1 µM)
MIC Streptococcus agalactiae (GC 4564) (Streptococcus sp.; Streptococcus agalactiae (GC 4564)): 32 µg/mL (≈ 30.1 µM)
MIC Streptococcus pneumoniae (ATCC 6301) (Streptococcus sp.; Streptococcus pneumoniae (ATCC 6301)): 32 µg/mL (≈ 30.1 µM)
MIC Streptococcus pneumoniae (GC 1894) (Streptococcus sp.; Streptococcus pneumoniae (GC 1894)): 32 µg/mL (≈ 30.1 µM)
MIC Streptococcus pneumoniae (GC 4565) (Streptococcus sp.; Streptococcus pneumoniae (GC 4565)): 64 µg/mL (≈ 60.3 µM)
MIC Streptococcus pyogenes (GC 4563) (Streptococcus sp.; Streptococcus pyogenes (GC 4563)): 32 µg/mL (≈ 30.1 µM)
MIC Streptococcus agalactiae (GC 4564) (Streptococcus sp.): 32 µg/mL (≈ 30.1 µM)
MIC Streptococcus pneumoniae (ATCC 6301) (Streptococcus sp.): 32 µg/mL (≈ 30.1 µM)
MIC Streptococcus pneumoniae (GC 1894) (Streptococcus sp.): 32 µg/mL (≈ 30.1 µM)
MIC Streptococcus pneumoniae (GC 4565) (Streptococcus sp.): 64 µg/mL (≈ 60.3 µM)
MIC Streptococcus pyogenes (GC 4563) (Streptococcus sp.): 32 µg/mL (≈ 30.1 µM)
MIC Coagulase Negative Staphylococcus (GC 4547) (Staphylococcus sp.): 32 µg/mL (≈ 30.1 µM)
MIC Coagulase Negative Staphylococcus (GC 4548) (Staphylococcus sp.): 32 µg/mL (≈ 30.1 µM)
MIC Coagulase Negative Staphylococcus (GC 4549) (Staphylococcus sp.): 64 µg/mL (≈ 60.3 µM)
MIC Coagulase Negative Staphylococcus (GC 4551) (Staphylococcus sp.): 64 µg/mL (≈ 60.3 µM)
MIC Coagulase Negative Staphylococcus (GC 6257) (Staphylococcus sp.): 16 µg/mL (≈ 15.1 µM)
MIC Staphylococcus aureus SMITH (GC 4543) (Staphylococcus sp.): 64 µg/mL (≈ 60.3 µM)
MIC Staphylococcus aureus-SMITH (GC 4543) (Staphylococcus sp.; strain SMITH GC 4543): 64 µg/mL (≈ 60.3 µM)
MIC Escherichia coli (ATCC 25922) (Escherichia coli): 64 µg/mL (≈ 60.3 µM)
MIC Escherichia coli (GC 4559) (Escherichia coli): 64 µg/mL (≈ 60.3 µM)
MIC Escherichia coli (GC 4560) (Escherichia coli): 32 µg/mL (≈ 30.1 µM)
SMILES: CC(c1ccccc1)C1NC(=O)CNC(=O)C(CO)NC(=O)C(C(O)C2CNC(=N)N2C2OC(CO)C(O)C(O)C2O)NC(=O)C(C(O)C2CNC(=N)N2)NC(=O)C(Cc2ccc3oc(-c4ccoc4)nc3c2)NC1=O (stereo not drawn) [Example 38, Cyclo[3-[2-(3-furyl)-1,3-benzoxazol-5-yl]alanyl-3-(2-iminoimidazolidin-4-yl)seryl-3-(3-hexopyranosyl-2-iminoimidazolidin-4-yl)serylserylglycyl-β-methylphenylalanyl]]
MIC Staphylococcus haemolyticus (GC 4546) (Staphylococcus sp.): 16 µg/mL (≈ 15.1 µM)
